From patent US6626122B2, “Deactivatable biocides in ballast water” (Chevron U.S.A. Inc, priority 2001, dated 2003)
Where two headings read alike, the source gives them in different places.

Columns and labels:
bacterial inoculum [1] = format: cell-based; details: for Growth, nitrogen compound control: control without glutaraldehyde; for Growth, nitrogen compound control / Growth, Neutralization of Biocides with Nitrogen Compounds: n-C16; for neutralizing 10 ppm of glutaraldehyde: two moles per glutaraldehyde; for Growth, Neutralization of Biocides with Nitrogen Compounds: with 10 ppm glutaraldehyde, two moles nitrogen compound per glutaraldehyde
Excerpt: The different nitrogen-containing compounds evaluated include the following: […]

bacterial inoculum [2] = assay: Evaluation of biocides: inhibition of growth on FT diesel and ALAD diesel; format: cell-based, alkane degrading organisms; note: key: −: No Growth; +: Growth (White Unless Otherwise Indicated)
Method: The ability of biocides to inhibit growth on a FT diesel and a low aromatics diesel fuel from Example 1 was investigated.
Test Conditions: 90 ml of growth media and 10 ml of either FT diesel or low sulfur (ALAD) diesel was added to 250 ml flasks. […] In addition to the 2 alkynes, glutaraldehyde (glutaric dialdehyde 50%), was tested. The following summarizes the test conditions:
100 ppm inhibitor (on a total test volume basis or 1000 ppm in diesel)
1% inhibitor (on a total test volume basis or 10% in diesel).
After inoculation, the flasks were place on a shaker-table (135 rpm) at room temperature and observed daily.

[3] = tested on: Larval Sheepshead Minnow (Cyprinodon variegatus); assay: in vivo; details: Cyprinodon variegatus (sheepshead minnow), 96 h
Method: (§1) […]. EPA/600/4-90/027F Washington, D.C.) conducted at Pacific Eco-Risk Laboratories, Martinez, Calif.
(§2) LOEC is the Lowest Observable Effect Concentration and is defined as the minimum concentration where mortality is observed for the test species. […] LC-50, the concentration that will cause mortality of 50% of the organisms tested within 96 h, is a calculated value based on all observations.
(§3) The solutions were mixed for 48 hours prior to the start of the bioassays. The solutions were diluted to perform bioassays at starting glutaraldehyde concentrations of 100, 50, 37.5, 25, and 10.5 mg/L. The results are summarized in Table X.

in vivo = details: Cyprinodon variegatus (sheepshead minnow, larval), 96 h, control experiment, separate compounds
Method: as §1, §2, §3

bacteria = assay: Neutralization of biocides - H2O2 and NH4Cl; format: cell-based; details: for microbial growth: after 14 days, 1, 10 or 100 ppm glutaraldehyde mixed with five times molar excess of the agent; for neutralizing biocides (glutaraldehyde): five times molar excess over 1, 10 or 100 ppm glutaraldehyde
Method: In this experiment, minimal medium containing 1, 10 or 100 ppm of glutaraldehyde was mixed with a five times molar excess of H2O2 or NH4Cl. Hydrocarbonaceous product and bacteria were then added to the mixture.

[4] = FT Diesel + 1 Wt % biocide, Day 0
[5] = FT Diesel + 1 Wt % biocide, Day 1
[6] = FT Diesel + 1 Wt % biocide, Day 5
[7] = FT Diesel + 1 Wt % biocide, Day 7
[8] = FT Diesel + 1 Wt % biocide, Day 8
[9] = FT Diesel + 1 Wt % biocide, Day 19
[10] = FT Diesel + 100 ppm biocide, Day 0
[11] = FT Diesel + 100 ppm biocide, Day 1
[12] = FT Diesel + 100 ppm biocide, Day 5
[13] = FT Diesel + 100 ppm biocide, Day 7
[14] = FT Diesel + 100 ppm biocide, Day 8
[15] = FT Diesel + 100 ppm biocide, Day 19
[16] = LA Diesel + 1 Wt % biocide, Day 0
[17] = LA Diesel + 1 Wt % biocide, Day 1
[18] = LA Diesel + 1 Wt % biocide, Day 5
[19] = LA Diesel + 1 Wt % biocide, Day 7
[20] = LA Diesel + 1 Wt % biocide, Day 8
[21] = LA Diesel + 1 Wt % biocide, Day 19
[22] = LA Diesel + 100 ppm biocide, Day 0
[23] = LA Diesel + 100 ppm biocide, Day 1
[24] = LA Diesel + 100 ppm biocide, Day 5
[25] = LA Diesel + 100 ppm biocide, Day 7
[26] = LA Diesel + 100 ppm biocide, Day 8
[27] = LA Diesel + 100 ppm biocide, Day 19

CCNCC [diethylamine, Diethylamine]
effective: neutralizing 10 ppm of glutaraldehyde (bacterial inoculum [1])
+: Growth, nitrogen compound control (bacterial inoculum [1]; Time 6 days) | Growth, nitrogen compound control (bacterial inoculum [1]; Time 7 days) | Growth, nitrogen compound control (bacterial inoculum [1]; Time 9 days) | Growth, nitrogen compound control (bacterial inoculum [1]; Time 13 days) | Growth, nitrogen compound control (bacterial inoculum [1]; Time 20 days) | Growth, Neutralization of Biocides with Nitrogen Compounds (bacterial inoculum [1]; Time 6 days) | Growth, Neutralization of Biocides with Nitrogen Compounds (bacterial inoculum [1]; Time 7 days) | Growth, Neutralization of Biocides with Nitrogen Compounds (bacterial inoculum [1]; Time 9 days) | Growth, Neutralization of Biocides with Nitrogen Compounds (bacterial inoculum [1]; Time 13 days) | Growth, Neutralization of Biocides with Nitrogen Compounds (bacterial inoculum [1]; Time 20 days)
−: Growth, nitrogen compound control (bacterial inoculum [1]; Time 0 days) | Growth, nitrogen compound control (bacterial inoculum [1]; Time 1 days) | Growth, nitrogen compound control (bacterial inoculum [1]; Time 2 days) | Growth, Neutralization of Biocides with Nitrogen Compounds (bacterial inoculum [1]; Time 0 days) | Growth, Neutralization of Biocides with Nitrogen Compounds (bacterial inoculum [1]; Time 1 days) | Growth, Neutralization of Biocides with Nitrogen Compounds (bacterial inoculum [1]; Time 2 days)

C#CCCCC [H, 1-hexyne]
+: Growth, Test Results on Fischer-Tropsch Diesel Fuel (bacterial inoculum [2]; [12]) | Growth, Test Results on Fischer-Tropsch Diesel Fuel (bacterial inoculum [2]; [13]) | Growth, Test Results on Fischer-Tropsch Diesel Fuel (bacterial inoculum [2]; [14]) | Growth, Test Results on Fischer-Tropsch Diesel Fuel (bacterial inoculum [2]; [15]) | Growth, Test Results on ALAD Diesel Fuel (bacterial inoculum [2]; [24]) | Growth, Test Results on ALAD Diesel Fuel (bacterial inoculum [2]; [25]) | Growth, Test Results on ALAD Diesel Fuel (bacterial inoculum [2]; [26]) | Growth, Test Results on ALAD Diesel Fuel (bacterial inoculum [2]; [27])
−: Growth, Test Results on Fischer-Tropsch Diesel Fuel (bacterial inoculum [2]; [4]) | Growth, Test Results on Fischer-Tropsch Diesel Fuel (bacterial inoculum [2]; [5]) | Growth, Test Results on Fischer-Tropsch Diesel Fuel (bacterial inoculum [2]; [6]) | Growth, Test Results on Fischer-Tropsch Diesel Fuel (bacterial inoculum [2]; [7]) | Growth, Test Results on Fischer-Tropsch Diesel Fuel (bacterial inoculum [2]; [8]) | Growth, Test Results on Fischer-Tropsch Diesel Fuel (bacterial inoculum [2]; [9]) | Growth, Test Results on Fischer-Tropsch Diesel Fuel (bacterial inoculum [2]; [10]) | Growth, Test Results on Fischer-Tropsch Diesel Fuel (bacterial inoculum [2]; [11]) | Growth, Test Results on ALAD Diesel Fuel (bacterial inoculum [2]; [16]) | Growth, Test Results on ALAD Diesel Fuel (bacterial inoculum [2]; [17]) | Growth, Test Results on ALAD Diesel Fuel (bacterial inoculum [2]; [18]) | Growth, Test Results on ALAD Diesel Fuel (bacterial inoculum [2]; [19]) | Growth, Test Results on ALAD Diesel Fuel (bacterial inoculum [2]; [20]) | Growth, Test Results on ALAD Diesel Fuel (bacterial inoculum [2]; [21]) | Growth, Test Results on ALAD Diesel Fuel (bacterial inoculum [2]; [22]) | Growth, Test Results on ALAD Diesel Fuel (bacterial inoculum [2]; [23])

NCCO [MEA, Monoethanolamine]
1500 µg/mL: LC50 at 96 h (in vivo)
1000 mg/L: NOEC [3]
1700 mg/L: LOEC [3]
effective: neutralizing 10 ppm of glutaraldehyde (bacterial inoculum [1])
+: Growth, nitrogen compound control (bacterial inoculum [1]; Time 7 days) | Growth, nitrogen compound control (bacterial inoculum [1]; Time 9 days) | Growth, nitrogen compound control (bacterial inoculum [1]; Time 13 days) | Growth, nitrogen compound control (bacterial inoculum [1]; Time 20 days) | Growth, Neutralization of Biocides with Nitrogen Compounds (bacterial inoculum [1]; Time 6 days) | Growth, Neutralization of Biocides with Nitrogen Compounds (bacterial inoculum [1]; Time 7 days) | Growth, Neutralization of Biocides with Nitrogen Compounds (bacterial inoculum [1]; Time 9 days) | Growth, Neutralization of Biocides with Nitrogen Compounds (bacterial inoculum [1]; Time 13 days) | Growth, Neutralization of Biocides with Nitrogen Compounds (bacterial inoculum [1]; Time 20 days)
−: Growth, nitrogen compound control (bacterial inoculum [1]; Time 0 days) | Growth, nitrogen compound control (bacterial inoculum [1]; Time 1 days) | Growth, nitrogen compound control (bacterial inoculum [1]; Time 2 days) | Growth, nitrogen compound control (bacterial inoculum [1]; Time 6 days) | Growth, Neutralization of Biocides with Nitrogen Compounds (bacterial inoculum [1]; Time 0 days) | Growth, Neutralization of Biocides with Nitrogen Compounds (bacterial inoculum [1]; Time 1 days) | Growth, Neutralization of Biocides with Nitrogen Compounds (bacterial inoculum [1]; Time 2 days)

C#CCO [P, Propargyl alcohol]
+ Yellow: Growth, Test Results on ALAD Diesel Fuel (bacterial inoculum [2]; [24]) | Growth, Test Results on ALAD Diesel Fuel (bacterial inoculum [2]; [25]) | Growth, Test Results on ALAD Diesel Fuel (bacterial inoculum [2]; [26]) | Growth, Test Results on ALAD Diesel Fuel (bacterial inoculum [2]; [27])
−: Growth, Test Results on Fischer-Tropsch Diesel Fuel (bacterial inoculum [2]; [4]) | Growth, Test Results on Fischer-Tropsch Diesel Fuel (bacterial inoculum [2]; [5]) | Growth, Test Results on Fischer-Tropsch Diesel Fuel (bacterial inoculum [2]; [6]) | Growth, Test Results on Fischer-Tropsch Diesel Fuel (bacterial inoculum [2]; [7]) | Growth, Test Results on Fischer-Tropsch Diesel Fuel (bacterial inoculum [2]; [8]) | Growth, Test Results on Fischer-Tropsch Diesel Fuel (bacterial inoculum [2]; [9]) | Growth, Test Results on Fischer-Tropsch Diesel Fuel (bacterial inoculum [2]; [10]) | Growth, Test Results on Fischer-Tropsch Diesel Fuel (bacterial inoculum [2]; [11]) | Growth, Test Results on Fischer-Tropsch Diesel Fuel (bacterial inoculum [2]; [12]) | Growth, Test Results on ALAD Diesel Fuel (bacterial inoculum [2]; [16]) | Growth, Test Results on ALAD Diesel Fuel (bacterial inoculum [2]; [17]) | Growth, Test Results on ALAD Diesel Fuel (bacterial inoculum [2]; [18]) | Growth, Test Results on ALAD Diesel Fuel (bacterial inoculum [2]; [19]) | Growth, Test Results on ALAD Diesel Fuel (bacterial inoculum [2]; [20]) | Growth, Test Results on ALAD Diesel Fuel (bacterial inoculum [2]; [21]) | Growth, Test Results on ALAD Diesel Fuel (bacterial inoculum [2]; [22]) | Growth, Test Results on ALAD Diesel Fuel (bacterial inoculum [2]; [23])
+: Growth, Test Results on Fischer-Tropsch Diesel Fuel (bacterial inoculum [2]; [13]) | Growth, Test Results on Fischer-Tropsch Diesel Fuel (bacterial inoculum [2]; [14]) | Growth, Test Results on Fischer-Tropsch Diesel Fuel (bacterial inoculum [2]; [15])

OO [H2O2]
no growth: microbial growth (bacteria)
not effective: neutralizing biocides (glutaraldehyde) (bacteria)

Nc1ccccc1 [aniline, Aniline]
−: Growth, nitrogen compound control (bacterial inoculum [1]; Time 0 days) | Growth, nitrogen compound control (bacterial inoculum [1]; Time 1 days) | Growth, nitrogen compound control (bacterial inoculum [1]; Time 2 days) | Growth, nitrogen compound control (bacterial inoculum [1]; Time 6 days) | Growth, nitrogen compound control (bacterial inoculum [1]; Time 7 days) | Growth, nitrogen compound control (bacterial inoculum [1]; Time 9 days) | Growth, nitrogen compound control (bacterial inoculum [1]; Time 13 days) | Growth, nitrogen compound control (bacterial inoculum [1]; Time 20 days) | Growth, Neutralization of Biocides with Nitrogen Compounds (bacterial inoculum [1]; Time 0 days) | Growth, Neutralization of Biocides with Nitrogen Compounds (bacterial inoculum [1]; Time 1 days) | Growth, Neutralization of Biocides with Nitrogen Compounds (bacterial inoculum [1]; Time 2 days) | Growth, Neutralization of Biocides with Nitrogen Compounds (bacterial inoculum [1]; Time 6 days) | Growth, Neutralization of Biocides with Nitrogen Compounds (bacterial inoculum [1]; Time 7 days) | Growth, Neutralization of Biocides with Nitrogen Compounds (bacterial inoculum [1]; Time 9 days) | Growth, Neutralization of Biocides with Nitrogen Compounds (bacterial inoculum [1]; Time 13 days) | Growth, Neutralization of Biocides with Nitrogen Compounds (bacterial inoculum [1]; Time 20 days)
excessively toxic: toxicity of the nitrogen-containing compound itself (microbial growth) (bacterial inoculum [1])

Cl.N [NH4Cl]
not effective: neutralizing biocides (glutaraldehyde) (bacteria)
no growth: microbial growth (bacteria)

OCCNCCO [DEA, Diethanolamine]
effective: neutralizing 10 ppm of glutaraldehyde (bacterial inoculum [1])
+: Growth, nitrogen compound control (bacterial inoculum [1]; Time 6 days) | Growth, nitrogen compound control (bacterial inoculum [1]; Time 7 days) | Growth, nitrogen compound control (bacterial inoculum [1]; Time 9 days) | Growth, nitrogen compound control (bacterial inoculum [1]; Time 13 days) | Growth, Neutralization of Biocides with Nitrogen Compounds (bacterial inoculum [1]; Time 1 days) | Growth, Neutralization of Biocides with Nitrogen Compounds (bacterial inoculum [1]; Time 2 days) | Growth, Neutralization of Biocides with Nitrogen Compounds (bacterial inoculum [1]; Time 6 days) | Growth, Neutralization of Biocides with Nitrogen Compounds (bacterial inoculum [1]; Time 7 days) | Growth, Neutralization of Biocides with Nitrogen Compounds (bacterial inoculum [1]; Time 9 days) | Growth, Neutralization of Biocides with Nitrogen Compounds (bacterial inoculum [1]; Time 13 days) | Growth, Neutralization of Biocides with Nitrogen Compounds (bacterial inoculum [1]; Time 20 days)
−: Growth, nitrogen compound control (bacterial inoculum [1]; Time 0 days) | Growth, nitrogen compound control (bacterial inoculum [1]; Time 1 days) | Growth, nitrogen compound control (bacterial inoculum [1]; Time 2 days) | Growth, nitrogen compound control (bacterial inoculum [1]; Time 20 days) | Growth, Neutralization of Biocides with Nitrogen Compounds (bacterial inoculum [1]; Time 0 days)
